ChEMBL document CHEMBL4804284

Assays:
Set-up in all cases: scale not given: the % may be the effect or the level left
[1] = system: Receptor-type tyrosine-protein kinase FLT3 (Homo sapiens), P36888 [D835H]; experiment: Inhibition of DNA-tagged human FLT3 D835H mutant assessed as percent of control at 50000 nM by qPCR analysis relative to control
[2] = molecular target: Fibroblast growth factor receptor 2 (Homo sapiens) (UniProt P21802); experiment: Inhibition of DNA-tagged human FGFR2 assessed as percent of control at 50000 nM by qPCR analysis relative to control
[3] = molecular target: Mitogen-activated protein kinase 1 (Homo sapiens) (UniProt P28482); experiment: Inhibition of DNA-tagged human ERK2 assessed as percent of control at 50000 nM by qPCR analysis relative to control
Chain of Mitogen-activated protein kinase 1 (Homo sapiens) (P28482 whole entry): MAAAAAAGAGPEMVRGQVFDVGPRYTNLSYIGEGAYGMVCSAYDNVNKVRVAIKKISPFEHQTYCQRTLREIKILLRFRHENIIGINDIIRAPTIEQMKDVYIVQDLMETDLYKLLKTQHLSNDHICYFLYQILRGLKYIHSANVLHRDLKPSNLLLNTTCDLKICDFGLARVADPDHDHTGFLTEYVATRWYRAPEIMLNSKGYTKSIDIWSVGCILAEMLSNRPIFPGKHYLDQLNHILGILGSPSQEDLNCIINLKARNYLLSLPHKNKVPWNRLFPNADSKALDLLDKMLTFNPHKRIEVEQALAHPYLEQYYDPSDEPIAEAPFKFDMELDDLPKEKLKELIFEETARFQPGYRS

[4] = molecular target: Receptor tyrosine-protein kinase erbB-2 (Homo sapiens) (UniProt P04626); experiment: Inhibition of DNA-tagged human ERBB2 assessed as percent of control at 50000 nM by qPCR analysis relative to control
[5] = system: Epidermal growth factor receptor (Homo sapiens), P00533 [L858R,T790M]; experiment: Inhibition of DNA-tagged human EGFR L858R/T790M double mutant assessed as percent of control at 50000 nM by qPCR analysis relative to control
[6] = molecular target: Discoidin domain-containing receptor 2 (Homo sapiens) (UniProt Q16832); experiment: Inhibition of DNA-tagged human DDR2 assessed as percent of control at 50000 nM by qPCR analysis relative to control
Chain of Discoidin domain-containing receptor 2 (Homo sapiens) (Q16832 whole entry, the tested form may be a part): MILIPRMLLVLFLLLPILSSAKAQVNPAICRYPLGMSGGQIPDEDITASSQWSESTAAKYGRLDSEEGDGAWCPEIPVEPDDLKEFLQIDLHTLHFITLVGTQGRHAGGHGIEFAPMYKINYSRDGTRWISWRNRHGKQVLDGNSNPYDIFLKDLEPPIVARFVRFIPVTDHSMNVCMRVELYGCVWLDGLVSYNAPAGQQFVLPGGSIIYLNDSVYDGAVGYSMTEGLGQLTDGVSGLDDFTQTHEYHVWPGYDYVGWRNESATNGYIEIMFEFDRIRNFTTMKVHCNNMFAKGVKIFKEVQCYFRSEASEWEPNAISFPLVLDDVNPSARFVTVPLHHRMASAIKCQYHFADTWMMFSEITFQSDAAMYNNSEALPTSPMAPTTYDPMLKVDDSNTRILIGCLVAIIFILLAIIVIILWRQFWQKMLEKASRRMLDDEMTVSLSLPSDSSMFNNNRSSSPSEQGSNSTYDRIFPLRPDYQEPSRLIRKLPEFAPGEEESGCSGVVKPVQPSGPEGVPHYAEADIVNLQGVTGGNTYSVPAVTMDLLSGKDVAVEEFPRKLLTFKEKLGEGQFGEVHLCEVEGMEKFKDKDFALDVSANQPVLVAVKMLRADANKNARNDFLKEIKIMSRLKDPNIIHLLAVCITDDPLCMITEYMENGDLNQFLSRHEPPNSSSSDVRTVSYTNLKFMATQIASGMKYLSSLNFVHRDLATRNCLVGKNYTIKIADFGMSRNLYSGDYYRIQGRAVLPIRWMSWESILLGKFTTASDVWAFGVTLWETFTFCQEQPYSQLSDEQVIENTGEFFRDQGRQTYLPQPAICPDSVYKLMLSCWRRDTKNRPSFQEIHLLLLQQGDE

[7] = molecular target: Death-associated protein kinase 2 (Homo sapiens) (UniProt Q9UIK4); experiment: Inhibition of DNA-tagged human DAPK2 assessed as percent of control at 50000 nM by qPCR analysis relative to control
[8] = molecular target: Death-associated protein kinase 1 (Homo sapiens) (UniProt P53355); experiment: Inhibition of DNA-tagged human DAPK1 assessed as percent of control at 50000 nM by qPCR analysis relative to control
[9] = molecular target: Casein kinase I isoform alpha (Homo sapiens) (UniProt P48729); experiment: Inhibition of DNA-tagged human CSNK1A1 assessed as percent of control at 50000 nM by qPCR analysis relative to control
Chain of Casein kinase I isoform alpha (Homo sapiens) (P48729 2-337 limits assumed): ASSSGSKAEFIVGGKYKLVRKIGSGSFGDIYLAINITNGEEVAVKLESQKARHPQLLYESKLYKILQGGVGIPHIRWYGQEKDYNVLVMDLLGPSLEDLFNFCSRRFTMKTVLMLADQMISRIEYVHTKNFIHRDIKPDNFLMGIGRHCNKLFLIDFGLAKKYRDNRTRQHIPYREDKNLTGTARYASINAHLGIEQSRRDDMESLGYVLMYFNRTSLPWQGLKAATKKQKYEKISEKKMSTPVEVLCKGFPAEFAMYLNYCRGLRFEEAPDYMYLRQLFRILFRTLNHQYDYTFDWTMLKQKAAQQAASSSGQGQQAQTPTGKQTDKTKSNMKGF

[10] = molecular target: Calcium/calmodulin-dependent protein kinase type II subunit gamma (Homo sapiens) (UniProt Q13555); experiment: Inhibition of DNA-tagged human CAMK2G assessed as percent of control at 50000 nM by qPCR analysis relative to control
Chain of Calcium/calmodulin-dependent protein kinase type II subunit gamma (Homo sapiens) (Q13555 whole entry): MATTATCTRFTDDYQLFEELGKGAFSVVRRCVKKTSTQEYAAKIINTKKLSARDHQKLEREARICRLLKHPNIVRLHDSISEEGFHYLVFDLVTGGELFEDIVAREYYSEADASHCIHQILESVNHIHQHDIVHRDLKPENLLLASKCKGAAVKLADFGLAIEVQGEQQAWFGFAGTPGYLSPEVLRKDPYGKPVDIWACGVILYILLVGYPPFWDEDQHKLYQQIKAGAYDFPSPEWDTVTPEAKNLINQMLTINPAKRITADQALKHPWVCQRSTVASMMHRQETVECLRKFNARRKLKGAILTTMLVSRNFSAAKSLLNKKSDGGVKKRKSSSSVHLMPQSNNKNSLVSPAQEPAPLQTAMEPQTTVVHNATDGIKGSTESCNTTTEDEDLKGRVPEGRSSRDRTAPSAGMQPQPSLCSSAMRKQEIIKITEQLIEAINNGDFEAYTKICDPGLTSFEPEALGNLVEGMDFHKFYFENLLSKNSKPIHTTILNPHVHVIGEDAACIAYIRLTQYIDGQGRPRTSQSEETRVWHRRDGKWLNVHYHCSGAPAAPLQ

[11] = molecular target: Serine/threonine-protein kinase B-raf (Homo sapiens) (UniProt P15056); experiment: Inhibition of DNA-tagged human BRAF assessed as percent of control at 50000 nM by qPCR analysis relative to control
Chain of Serine/threonine-protein kinase B-raf (Homo sapiens) (P15056 whole entry): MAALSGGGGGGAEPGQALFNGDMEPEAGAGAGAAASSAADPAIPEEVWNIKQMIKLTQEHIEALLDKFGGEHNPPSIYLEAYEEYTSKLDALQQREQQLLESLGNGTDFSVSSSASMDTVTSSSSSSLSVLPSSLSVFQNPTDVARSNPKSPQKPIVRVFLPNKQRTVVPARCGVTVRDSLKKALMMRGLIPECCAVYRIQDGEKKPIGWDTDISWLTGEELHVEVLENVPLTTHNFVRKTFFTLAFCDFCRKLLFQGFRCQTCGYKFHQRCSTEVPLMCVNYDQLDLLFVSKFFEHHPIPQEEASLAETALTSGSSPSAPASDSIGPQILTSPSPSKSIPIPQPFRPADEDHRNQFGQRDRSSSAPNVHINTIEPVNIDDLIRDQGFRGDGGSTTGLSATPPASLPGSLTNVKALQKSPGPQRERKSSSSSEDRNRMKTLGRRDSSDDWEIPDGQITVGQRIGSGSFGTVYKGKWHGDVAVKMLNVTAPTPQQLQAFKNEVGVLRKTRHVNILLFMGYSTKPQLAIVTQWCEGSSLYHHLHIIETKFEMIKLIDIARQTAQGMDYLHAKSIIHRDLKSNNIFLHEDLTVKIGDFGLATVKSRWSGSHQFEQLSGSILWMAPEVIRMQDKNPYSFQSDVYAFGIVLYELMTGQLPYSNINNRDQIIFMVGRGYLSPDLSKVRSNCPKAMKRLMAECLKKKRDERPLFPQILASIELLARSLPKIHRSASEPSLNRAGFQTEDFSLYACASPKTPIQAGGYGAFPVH

[12] = molecular target: Tyrosine-protein kinase Blk (Homo sapiens) (UniProt P51451); experiment: Inhibition of DNA-tagged human BLK assessed as percent of control at 50000 nM by qPCR analysis relative to control
Chain of Tyrosine-protein kinase Blk (Homo sapiens) (P51451 2-505 limits assumed): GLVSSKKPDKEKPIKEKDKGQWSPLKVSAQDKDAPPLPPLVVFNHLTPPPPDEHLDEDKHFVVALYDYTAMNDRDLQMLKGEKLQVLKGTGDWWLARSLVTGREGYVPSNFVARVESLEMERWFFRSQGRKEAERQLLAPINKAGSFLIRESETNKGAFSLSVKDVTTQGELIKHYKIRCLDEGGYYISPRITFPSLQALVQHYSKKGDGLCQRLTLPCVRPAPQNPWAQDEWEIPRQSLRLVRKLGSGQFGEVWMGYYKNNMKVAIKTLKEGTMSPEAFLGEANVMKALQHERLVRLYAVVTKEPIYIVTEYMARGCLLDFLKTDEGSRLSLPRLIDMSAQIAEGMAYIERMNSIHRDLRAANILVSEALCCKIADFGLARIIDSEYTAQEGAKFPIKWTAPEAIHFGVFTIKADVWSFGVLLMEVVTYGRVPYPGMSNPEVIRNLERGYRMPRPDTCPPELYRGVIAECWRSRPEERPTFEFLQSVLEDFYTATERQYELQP

[13] = system: Tyrosine-protein kinase ABL1 (Homo sapiens), P00519 [UNDEFINED MUTATION]; experiment: Inhibition of DNA-tagged phosphorylated human ABL1 […] mutant assessed as percent of control at 50000 nM by qPCR analysis relative to control
[14] = system: Mast/stem cell growth factor receptor Kit (Homo sapiens), P10721 [A829P]; experiment: Inhibition of DNA-tagged human KIT A829P mutant assessed as percent of control at 50000 nM by qPCR analysis relative to control
[15] = molecular target: Mitogen-activated protein kinase kinase kinase 2 (Homo sapiens) (UniProt Q9Y2U5); experiment: Inhibition of DNA-tagged human MAP3K2 assessed as percent of control at 50000 nM by qPCR analysis relative to control
Chain of Mitogen-activated protein kinase kinase kinase 2 (Homo sapiens) (Q9Y2U5 whole entry): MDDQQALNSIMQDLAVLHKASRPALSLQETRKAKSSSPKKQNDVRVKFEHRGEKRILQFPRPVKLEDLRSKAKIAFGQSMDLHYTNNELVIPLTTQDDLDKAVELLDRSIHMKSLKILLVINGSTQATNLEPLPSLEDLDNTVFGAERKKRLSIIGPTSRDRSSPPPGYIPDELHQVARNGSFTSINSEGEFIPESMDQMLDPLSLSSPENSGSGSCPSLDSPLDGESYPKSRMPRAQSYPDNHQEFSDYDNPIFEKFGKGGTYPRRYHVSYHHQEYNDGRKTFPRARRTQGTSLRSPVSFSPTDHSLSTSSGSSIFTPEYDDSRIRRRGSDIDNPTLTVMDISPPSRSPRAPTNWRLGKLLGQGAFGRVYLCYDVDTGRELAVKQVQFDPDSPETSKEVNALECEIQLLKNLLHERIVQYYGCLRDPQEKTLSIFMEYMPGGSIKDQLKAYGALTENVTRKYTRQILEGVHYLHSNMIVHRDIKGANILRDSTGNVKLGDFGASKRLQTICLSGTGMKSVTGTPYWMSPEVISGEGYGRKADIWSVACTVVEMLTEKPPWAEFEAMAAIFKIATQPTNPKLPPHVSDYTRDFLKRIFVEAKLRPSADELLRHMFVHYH

[16] = molecular target: Mitogen-activated protein kinase kinase kinase kinase 3 (Homo sapiens) (UniProt Q8IVH8); experiment: Inhibition of DNA-tagged human MAP4K3 assessed as percent of control at 50000 nM by qPCR analysis relative to control
Chain of Mitogen-activated protein kinase kinase kinase kinase 3 (Homo sapiens) (Q8IVH8 whole entry): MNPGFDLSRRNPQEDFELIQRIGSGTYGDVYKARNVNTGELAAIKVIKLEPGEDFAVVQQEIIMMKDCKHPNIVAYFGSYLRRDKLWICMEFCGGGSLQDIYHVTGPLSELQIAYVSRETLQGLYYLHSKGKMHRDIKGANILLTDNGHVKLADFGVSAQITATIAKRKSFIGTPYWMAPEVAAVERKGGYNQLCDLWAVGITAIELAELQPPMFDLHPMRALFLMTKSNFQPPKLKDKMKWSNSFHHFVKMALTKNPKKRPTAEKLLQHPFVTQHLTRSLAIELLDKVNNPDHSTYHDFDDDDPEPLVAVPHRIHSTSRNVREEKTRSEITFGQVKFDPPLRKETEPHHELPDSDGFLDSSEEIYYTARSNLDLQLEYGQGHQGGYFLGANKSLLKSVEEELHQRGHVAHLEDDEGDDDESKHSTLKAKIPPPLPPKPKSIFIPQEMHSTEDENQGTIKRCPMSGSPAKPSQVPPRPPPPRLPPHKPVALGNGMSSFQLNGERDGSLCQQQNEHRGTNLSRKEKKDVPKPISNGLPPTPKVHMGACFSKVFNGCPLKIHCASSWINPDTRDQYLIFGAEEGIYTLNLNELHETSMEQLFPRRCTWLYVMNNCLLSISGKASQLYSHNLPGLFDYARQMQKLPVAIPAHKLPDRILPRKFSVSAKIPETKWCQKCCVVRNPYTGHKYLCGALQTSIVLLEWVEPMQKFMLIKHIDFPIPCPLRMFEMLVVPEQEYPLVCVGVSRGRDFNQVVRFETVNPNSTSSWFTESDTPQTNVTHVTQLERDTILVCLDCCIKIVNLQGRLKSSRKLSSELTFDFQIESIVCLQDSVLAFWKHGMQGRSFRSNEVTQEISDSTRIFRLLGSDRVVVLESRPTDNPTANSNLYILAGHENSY

[17] = molecular target: MAP/microtubule affinity-regulating kinase 4 (Homo sapiens) (UniProt Q96L34); experiment: Inhibition of DNA-tagged human MARK4 assessed as percent of control at 50000 nM by qPCR analysis relative to control
[18] = molecular target: Dual specificity mitogen-activated protein kinase kinase 5 (Homo sapiens) (UniProt Q13163); experiment: Inhibition of DNA-tagged human MEK5 assessed as percent of control at 50000 nM by qPCR analysis relative to control
[19] = molecular target: Serine/threonine-protein kinase Nek7 (Homo sapiens) (UniProt Q8TDX7); experiment: Inhibition of DNA-tagged human NEK7 assessed as percent of control at 50000 nM by qPCR analysis relative to control
[20] = molecular target: Serine/threonine-protein kinase PAK 3 (Homo sapiens) (UniProt O75914); experiment: Inhibition of DNA-tagged human PAK3 assessed as percent of control at 50000 nM by qPCR analysis relative to control
[21] = molecular target: Cyclin-dependent kinase 2 homolog (Plasmodium falciparum (isolate K1 / Thailand)) (UniProt Q07785); experiment: Inhibition of DNA-tagged Plasmodium falciparum PFPK5 assessed as percent of control at 50000 nM by qPCR analysis relative to control
[22] = molecular target: Phosphatidylinositol 3-kinase C2 domain-containing subunit gamma (Homo sapiens) (UniProt O75747); experiment: Inhibition of DNA-tagged human PIK3C2G assessed as percent of control at 50000 nM by qPCR analysis relative to control
[23] = molecular target: Phosphatidylinositol 4-phosphate 5-kinase type-1 alpha (Homo sapiens) (UniProt Q99755); experiment: Inhibition of DNA-tagged human PIP5K1A assessed as percent of control at 50000 nM by qPCR analysis relative to control
[24] = molecular target: Serine/threonine-protein kinase PknB (Mycobacterium tuberculosis) (UniProt P9WI81); experiment: Inhibition of DNA-tagged Mycobacterium tuberculosis PKNB assessed as percent of control at 50000 nM by qPCR analysis relative to control
[25] = molecular target: Ribosomal protein S6 kinase alpha-4 (Homo sapiens) (UniProt O75676); experiment: Inhibition of DNA-tagged human N-terminal RPS6KA4 kinase domain assessed as percent of control at 50000 nM by qPCR analysis relative to control
[26] = molecular target: Serine/threonine-protein kinase SIK1 (Homo sapiens) (UniProt P57059); experiment: Inhibition of DNA-tagged human SIK assessed as percent of control at 50000 nM by qPCR analysis relative to control
[27] = molecular target: Tyrosine-protein kinase Tec (Homo sapiens) (UniProt P42680); experiment: Inhibition of DNA-tagged human TEC assessed as percent of control at 50000 nM by qPCR analysis relative to control
[28] = molecular target: TGF-beta receptor type-1 (Homo sapiens) (UniProt P36897); experiment: Inhibition of DNA-tagged human TGFBR1 assessed as percent of control at 50000 nM by qPCR analysis relative to control
[29] = molecular target: Angiopoietin-1 receptor (Homo sapiens) (UniProt Q02763); experiment: Inhibition of DNA-tagged human TIE2 assessed as percent of control at 50000 nM by qPCR analysis relative to control

## CN1C(=O)/C(=C2/C(=O)Nc3ccccc32)c2ccccc21
[1]
  Activity: 100%
[2]
  Activity: 89%
[3]
  Activity: 100%
[4]
  Activity: 100%
[5]
  Activity: 98%
[6]
  Activity: 86%
[7]
  Activity: 85%
[8]
  Activity: 86%
[9]
  Activity: 100%
[10]
  Activity: 90%
[11]
  Activity: 84%
[12]
  Activity: 100%
[13]
  Activity: 94%
[14]
  Activity: 63%
[15]
  Activity: 99%
[16]
  Activity: 90%
[17]
  Activity: 77%
[18]
  Activity: 97%
[19]
  Activity: 59%
[20]
  Activity: 93%
[21]
  Activity: 72%
[22]
  Activity: 99%
[23]
  Activity: 100%
[24]
  Activity: 100%
[25]
  Activity: 82%
[26]
  Activity: 93%
[27]
  Activity: 100%
[28]
  Activity: 100%
[29]
  Activity: 100%
